What all share (assay): In vitro antibacterial activity, broth microdilution MIC90
Holding throughout (type): cell-based

The subject of one test is Enterococcus faecalis. As for the experimental part: (§1) MIC90 was measured by broth microdilution method based on CLSI standards [reference: Clinical and Laboratory Standards Institute Document. (2000) Methods for Dilution Antimicrobial Susceptibility Test for Bacteria that Grow Aerobically-Fifth Edition: M7-A5. CLSI, Villanova, Pa.].
(§2) Activities of 12 strains including Staphylococcus aureus, Methicillin Resistant Staphylococcus aureus, Staphylococcus epidermidis, Methicillin Resistant Staphylococcus epidermidis, Enterococcus faecalis, Vancomycin Resistant Enterococcus faecalis, Linezolid and Vancomycin Resistant Enterococcus faecalis, Enterococcus faecium, Vancomycin Resistant Enterococcus faecium, Linezolid and Vancomycin Resistant Enterococcus faecium, and Moraxella catarrhalis, were measured, and results are shown in Table 1 below.
(§3) The final concentration of test material in the antibacterial test was from 0.063 μg/mL (minimum) to 128 μg/mL (maximum), and the final concentration of DMSO used as an excipient was 2.5% (V/V). Linezolid represented by Formula B below (manufactured by Pfizer) was used as a control and bacterial activity thereof was compared with those of the test materials.

The next test concerns Enterococcus faecium. As for the experimental part:
as §1, §2, §3

For test [1], the system named is Linezolid and Vancomycin Resistant Enterococcus faecalis. As for the experimental part: as §1, §2, §3
Test [2] has as its system Linezolid and Vancomycin Resistant Enterococcus faecium (strain 10). As for the experimental part: as §1, §2, §3
The test system of test [3] is Linezolid and Vancomycin Resistant Enterococcus faecium (strain 11). As for the experimental part:
as §1, §2, §3

In test [4] the test system is Methicillin Resistant Staphylococcus aureus. As for the experimental part:
as §1, §2, §3

For test [5], the system named is Methicillin Resistant Staphylococcus epidermidis. As for the experimental part:
as §1, §2, §3

A further test concerns Moraxella catarrhalis. As to the method: as §1, §2, §3
In a further test the test system is Staphylococcus aureus. As to the method:
as §1, §2, §3

The test system of test [6] is Staphylococcus epidermidis. As for the experimental part: as §1, §2, §3
The test system of test [7] is Vancomycin Resistant Enterococcus faecalis. As for the experimental part:
as §1, §2, §3

Test [8] has as its system Vancomycin Resistant Enterococcus faecium. As to the method:
as §1, §2, §3

Values after ≈ are worked out from the molar mass of the structure shown. Where two headings read alike, the source gives them in different places.

Regarding `O=C(CO)N1CCN(c2ccc(-c3ccc(N4C[C@H](Cn5ccnn5)OC4=O)cc3F)cn2)C=N1` [Compound 32], the MIC90 turned out to be 0.5 µg/mL (≈ 1.04 µM) against Enterococcus faecalis (Enterococcus faecalis); 0.25 µg/mL (≈ 0.52 µM) against Enterococcus faecium (Enterococcus faecium); 2 µg/mL (≈ 4.16 µM) in [1] (Enterococcus faecalis); 2 µg/mL (≈ 4.16 µM) in [2] (Enterococcus faecium); 2 µg/mL (≈ 4.16 µM) in test [3] (Enterococcus faecium); 1 µg/mL (≈ 2.08 µM) in test [4] (Staphylococcus aureus). Moreover, the MIC90 in [5] (Staphylococcus epidermidis) was determined as 1 µg/mL (≈ 2.08 µM); with Moraxella catarrhalis (Moraxella catarrhalis), 2 µg/mL (≈ 4.16 µM); against Staphylococcus aureus (Staphylococcus aureus), 0.25 µg/mL (≈ 0.52 µM); in test [6] (Staphylococcus epidermidis), 0.25 µg/mL (≈ 0.52 µM); in [7] (Enterococcus faecalis), 0.5 µg/mL (≈ 1.04 µM); in test [8] (Enterococcus faecium), 0.5 µg/mL (≈ 1.04 µM).

In the case of `C=CCN1CCN(c2ccc(-c3ccc(N4C[C@H](CNC(C)=O)OC4=O)cc3F)cn2)C=N1` [Compound 7], the MIC90 was 0.5 µg/mL (≈ 1.1 µM) in the test with Enterococcus faecalis (Enterococcus faecalis); 1 µg/mL (≈ 2.21 µM) with Enterococcus faecium (Enterococcus faecium); 4 µg/mL (≈ 8.84 µM) in test [1] (Enterococcus faecalis); 4 µg/mL (≈ 8.84 µM) in test [2] (Enterococcus faecium); 4 µg/mL (≈ 8.84 µM) in test [3] (Enterococcus faecium); 1 µg/mL (≈ 2.21 µM) in test [4] (Staphylococcus aureus). Further, the MIC90 was 1 µg/mL (≈ 2.21 µM) in [5] (Staphylococcus epidermidis); 2 µg/mL (≈ 4.42 µM) in the test with Moraxella catarrhalis (Moraxella catarrhalis); 0.5 µg/mL (≈ 1.1 µM) with Staphylococcus aureus (Staphylococcus aureus); 0.5 µg/mL (≈ 1.1 µM) in test [6] (Staphylococcus epidermidis); 1 µg/mL (≈ 2.21 µM) in test [7] (Enterococcus faecalis); 1 µg/mL (≈ 2.21 µM) in test [8] (Enterococcus faecium).

Regarding `O=C1O[C@@H](CNc2ccon2)CN1c1ccc(-c2ccc(C3=NOCCN3)nc2)c(F)c1` [Compound 67], the MIC90 stood at 0.5 µg/mL (≈ 1.14 µM) with Enterococcus faecalis (strain 5, E. faecalis); 0.25 µg/mL (≈ 0.57 µM) against Enterococcus faecium (strain 8, E. faecium); 2 µg/mL (≈ 4.56 µM) in test [1] (strain 7, E. faecalis VanA LR); 2 µg/mL (≈ 4.56 µM) in test [2] (strain 10, E. faecium VanA LR); 2 µg/mL (≈ 4.56 µM) in [3] (strain 11, E. faecium VanA LR); 0.5 µg/mL (≈ 1.14 µM) in test [4] (strain 2, S. aureus MR). For the same compound, the MIC90 in test [5] (strain 4, S. epidermidis MR) stood at 0.5 µg/mL (≈ 1.14 µM); with Moraxella catarrhalis (strain 12, M. catarrhalis), 1 µg/mL (≈ 2.28 µM); against Staphylococcus aureus (strain 1, S. aureus), 0.25 µg/mL (≈ 0.57 µM); in [6] (strain 3, S. epidermidis) it was 0.25 µg/mL (≈ 0.57 µM); in test [7] (strain 6, E. faecalis VanA) it was 0.5 µg/mL (≈ 1.14 µM); in test [8] (strain 9, E. faecium VanA) it was 0.5 µg/mL (≈ 1.14 µM).

For `CC(=O)NC[C@H]1CN(c2ccc(-c3ccc(N4C=NN(CC(=O)OC(C)(C)C)CC4)nc3)c(F)c2)C(=O)O1` [Compound 9], the MIC90 in the test with Enterococcus faecalis (Enterococcus faecalis) was found to be 1 µg/mL (≈ 1.9 µM); with Enterococcus faecium (Enterococcus faecium) it was 2 µg/mL (≈ 3.8 µM); in test [1] (Enterococcus faecalis), 8 µg/mL (≈ 15.2 µM); in test [2] (Enterococcus faecium), 8 µg/mL (≈ 15.2 µM); in test [3] (Enterococcus faecium), 8 µg/mL (≈ 15.2 µM); in test [4] (Staphylococcus aureus) it was 4 µg/mL (≈ 7.6 µM). Further, the MIC90 was 4 µg/mL (≈ 7.6 µM) in test [5] (Staphylococcus epidermidis); 1 µg/mL (≈ 1.9 µM) in the test on Staphylococcus aureus (Staphylococcus aureus); 1 µg/mL (≈ 1.9 µM) in test [6] (Staphylococcus epidermidis); 2 µg/mL (≈ 3.8 µM) in [7] (Enterococcus faecalis); 2 µg/mL (≈ 3.8 µM) in test [8] (Enterococcus faecium).

As for `CCOC(=O)CN1CCN(c2ccc(-c3ccc(N4C[C@H](CNC(C)=O)OC4=O)cc3F)cn2)C=N1` [Compound 5], the MIC90 in the test on Enterococcus faecalis (Enterococcus faecalis) was determined as 0.5 µg/mL (≈ 1 µM); with Enterococcus faecium (Enterococcus faecium) it was 0.5 µg/mL (≈ 1 µM); in test [1] (Enterococcus faecalis) it was 2 µg/mL (≈ 4.01 µM); in test [2] (Enterococcus faecium), 2 µg/mL (≈ 4.01 µM); in test [3] (Enterococcus faecium), 2 µg/mL (≈ 4.01 µM); in [4] (Staphylococcus aureus) it was 1 µg/mL (≈ 2.01 µM). Further, the MIC90 in test [5] (Staphylococcus epidermidis) turned out to be 1 µg/mL (≈ 2.01 µM); with Staphylococcus aureus (Staphylococcus aureus), 0.5 µg/mL (≈ 1 µM); in test [6] (Staphylococcus epidermidis), 0.5 µg/mL (≈ 1 µM); in test [7] (Enterococcus faecalis) it was 0.5 µg/mL (≈ 1 µM); in test [8] (Enterococcus faecium) it was 0.5 µg/mL (≈ 1 µM).

For `CC(=O)NC[C@H]1CN(c2ccc(-c3ccc(N4C=NN(CC(=O)O)CC4)nc3)c(F)c2)C(=O)O1` [Compound 10], the MIC90 against Enterococcus faecalis (Enterococcus faecalis) was found to be 1 µg/mL (≈ 2.13 µM); in the test on Enterococcus faecium (Enterococcus faecium), 1 µg/mL (≈ 2.13 µM); in [1] (Enterococcus faecalis) it was 8 µg/mL (≈ 17 µM); in test [2] (Enterococcus faecium), 8 µg/mL (≈ 17 µM); in test [3] (Enterococcus faecium), 8 µg/mL (≈ 17 µM); in test [4] (Staphylococcus aureus), 2 µg/mL (≈ 4.25 µM). The MIC90 in test [5] (Staphylococcus epidermidis) stood at 2 µg/mL (≈ 4.25 µM); with Staphylococcus aureus (Staphylococcus aureus) it was 1 µg/mL (≈ 2.13 µM); in [6] (Staphylococcus epidermidis) it was 1 µg/mL (≈ 2.13 µM); in test [7] (Enterococcus faecalis), 2 µg/mL (≈ 4.25 µM); in test [8] (Enterococcus faecium), 2 µg/mL (≈ 4.25 µM).

Take `CC(=O)NC[C@H]1CN(c2ccc(-c3ccc(N4C=NN(CCO)CC4)nc3)c(F)c2)C(=O)O1` [Compound 6]: the MIC90 with Enterococcus faecalis (Enterococcus faecalis, strain 5, E. faecalis, read-out: MIC90) was determined as 0.5 µg/mL (≈ 1.1 µM); with Enterococcus faecium (Enterococcus faecium, strain 8, E. faecium, read-out: MIC90), 0.5 µg/mL (≈ 1.1 µM); in test [1] (Enterococcus faecalis, strain 7, E. faecalis VanA LR, read-out: MIC90), 2 µg/mL (≈ 4.38 µM); in test [2] (Enterococcus faecium, strain 10, E. faecium VanA LR, read-out: MIC90), 2 µg/mL (≈ 4.38 µM); in test [3] (Enterococcus faecium, strain 11, E. faecium VanA LR, read-out: MIC90), 2 µg/mL (≈ 4.38 µM); in [4] (Staphylococcus aureus, strain 2, S. aureus MR, read-out: MIC90) it was 1 µg/mL (≈ 2.19 µM). The MIC90 is 1 µg/mL (≈ 2.19 µM) in test [5] (Staphylococcus epidermidis, strain 4, S. epidermidis MR, read-out: MIC90); 0.5 µg/mL (≈ 1.1 µM) with Staphylococcus aureus (Staphylococcus aureus, strain 1, S. aureus, read-out: MIC90); 0.5 µg/mL (≈ 1.1 µM) in test [6] (Staphylococcus epidermidis, strain 3, S. epidermidis, read-out: MIC90); 0.5 µg/mL (≈ 1.1 µM) in [7] (Enterococcus faecalis, strain 6, E. faecalis VanA, read-out: MIC90); 0.5 µg/mL (≈ 1.1 µM) in [8] (Enterococcus faecium, strain 9, E. faecium VanA, read-out: MIC90).

The values above are taken from patent publication US8846669B2, “Oxazolidinone derivative and medical composition containing same” (Legochem Biosciences, Inc., priority 2011, dated 2014).
